Consider one molecule from article PMC11742793 (BMC Chemistry, 2025).

In the test the target is P. falciparum lactate dehydrogenase (PfLDH) (Plasmodium falciparum, UniProt Q76NM3). The experiment in a line: microscale thermophoresis. Type of test: binding. A general note: MST reads how a fluorescent partner responds to local heating, with and without ligand.
Sequence of P. falciparum lactate dehydrogenase (PfLDH) (Q76NM3 1-316): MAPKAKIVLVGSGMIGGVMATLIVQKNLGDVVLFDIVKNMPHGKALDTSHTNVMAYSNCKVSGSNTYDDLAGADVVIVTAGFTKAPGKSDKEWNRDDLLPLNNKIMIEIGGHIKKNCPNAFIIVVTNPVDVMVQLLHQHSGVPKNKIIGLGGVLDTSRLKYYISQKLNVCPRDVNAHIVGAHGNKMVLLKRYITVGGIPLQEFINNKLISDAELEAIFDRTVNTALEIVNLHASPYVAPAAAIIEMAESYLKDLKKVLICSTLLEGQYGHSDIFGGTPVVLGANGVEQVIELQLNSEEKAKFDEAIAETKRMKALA

Molecule `C=C(C)[C@@H]1CC[C@]2(C(=O)O)CC[C@]3(C)[C@H](CC[C@@H]4[C@@]5(C)CC[C@H](O)C(C)(C)[C@@H]5CC[C@]43C)[C@@H]12` [BA, betulinic acid] yielded a Kd of 104 nM.

One may read the Kd as the constant that tells how readily two partners part at equilibrium. High values mean weaker binding, low ones tighter binding.
